Each structure is given as a SMILES string. pIC50: −log10 of the molar value. Structures can show the parent of a compound that is named as a salt. Where two headings read alike, the source gives them in different places.

Data on 13 compounds can be found in patent US7589096B2, “Azole derivatives” (Banyu Pharmaceutical Co., Ltd., priority 2002, dated 2009).

The nature of series [1]: Brain/cerebrospinal fluid transport test. Type of series: in vivo. The following applies: male SD rats, 2 hours after oral administration (10 mg/kg); for concentration at 2 h: rat. The protocol: A test compound was orally or intravenously administered to male SD rats (7-10 weeks old, 200-400 g), and whole blood was collected from the abdominal aorta of said rats anesthetized with ether at predetermined time, using a heparin-treated syringe. Then, the head skin was cut open, and a dental 30 G needle was inserted between the cervical vertebrae, and it was further inserted into the cavum subarachnoideale. After 50 to 100 μL cerebrospinal fluid had been collected by a 1 ml-syringe through a tube connected to said dental 30 G needle, the brain was extracted. The blood sample was centrifuged (4° C., 6,000 r.p.m., 10 minutes) to collect the plasma, to which was added 3-fold amount of ethanol containing an internal standard, and the mixture was stirred. The brain sample was homogenized after addition of 2 ml water, an aliquot of the homogenate was taken and 3-fold amount of ethanol containing an internal standard was added thereto and stirred. The cerebrospinal fluid was stirred after adding 3-fold amount of ethanol containing an internal standard. The samples thus obtained were allowed to stand at −20° C. for 20 minutes, and then centrifuged (4° C., 12,000 g, 10 minutes). The supernatant was analyzed by LC/MS/MS, and the concentration of the test compound in the plasma, brain, and cerebrospinal fluid were measured by the method using a relative calibration curve.

Series [2] concerns the target T1, human NPY Y5 receptor (Homo sapiens, UniProt Q15761).
T1 construct: expressed in transfected cells; host or cells: COS-7, CHO and LM(tk-)
T1 sequence (Q15761 1-445): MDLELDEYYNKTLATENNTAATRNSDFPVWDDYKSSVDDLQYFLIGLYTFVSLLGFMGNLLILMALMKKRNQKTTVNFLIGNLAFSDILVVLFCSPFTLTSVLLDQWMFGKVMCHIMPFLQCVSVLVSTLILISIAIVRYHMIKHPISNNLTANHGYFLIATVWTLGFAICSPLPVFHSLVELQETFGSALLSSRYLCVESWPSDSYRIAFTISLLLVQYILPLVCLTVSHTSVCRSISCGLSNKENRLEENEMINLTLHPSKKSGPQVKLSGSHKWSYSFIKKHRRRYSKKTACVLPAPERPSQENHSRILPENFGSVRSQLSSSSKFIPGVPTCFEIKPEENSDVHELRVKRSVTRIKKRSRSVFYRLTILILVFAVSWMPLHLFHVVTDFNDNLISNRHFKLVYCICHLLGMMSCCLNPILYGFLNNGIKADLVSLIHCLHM
The series is described as follows: NPY binding inhibition test ([125I]peptide YY binding to membranes of NPY Y5 receptor expression cells). The following applies: [125I]peptideYY, membrane sample, 25° C., 2 hours; read-out: IC50 against specific peptide YY binding. From the text: cDNA sequence encoding human NPY Y5 receptor (cf. International patent publication number WO96/16542) was cloned into expression vectors pcDNA3, pRc/RSV (made by invitrogen Inc.) and pCI-neo (made by Promega Inc.). The expression vectors thus obtained were transfected to host cells COS-7, CHO and LM(tk-) (American Type Culture Collection) by cationic lipid method (Proceedings of the National Academy of Sciences of the United States of America, 84: 7413 (1987)) to give NPY Y5 receptor expression cells.
A membrane sample prepared from the cells which expressed NPY Y5 receptor was incubated together with a test compound and [^125I]peptideYY (made by NEN) (20,000 cpm) in man assay buffer (25 mM Tris buffer, pH 7.4, containing 10 mM magnesium chloride, 1 mM phenylmethylsulfonyl fluoride, 0.1% bacitracin and 0.5% bovine serum albumin) at 25° C. for 2 hours, then filtered through a glass filter GF/C and washed with 5 mM Tris buffer (pH7.4) containing 0.3% BSA. The radioactivity of the cake on the glass filter was measured. Non-specific binding was measured in the presence of 1 μM peptide YY, and a 50% Inhibitory Concentration (IC50) of the test compound against specific peptide YY binding was determined (Endocrinology; 131: 2090 (1992)).

Broadly, the pIC50 is the IC50 on a negative log10 scale, so that one unit is a factor of ten. For the compound `O=C1OC2(CCC(c3cc(-c4ccnc(-c5ccccc5)n4)[nH]n3)CC2)c2cnccc21` (stereo not drawn) [Example 29, trans-3-[3-oxospiro[6-azaisobenzofuran-1(3H),1′-cyclohexan]-4′-yl]-5-(2-phenylpyrimidin-4-yl)-1H-pyrazole], the “concentration in the brain” value in series [1] amounted to 3.01 nmol/g. The concentration at 2 h was 15 nM in series [1] (cerebrospinal fluid, read-out: concentration in the cerebrospinal fluid) and 1160 nM in series [1] (plasma, read-out: concentration in the plasma). In series [2], the pIC50 was 8.41.
Regarding `O=C1OC2(CCC(c3nn4nc(-c5ccccc5)cc4[nH]3)CC2)c2cnccc21` (stereo not drawn) [Example 35, trans-2-[3-oxospiro[6-azaisobenzofuran-1(3H),1′-cyclohexan]-4′-yl]-6-phenyl-1H-pyrazolo[2,3-b][1,2,4]triazole], the pIC50 in series [2] was 8.48.
Same read-out and setting: then `O=C1OC2(CCN(c3nc(-c4ccc5ccccc5c4)c[nH]3)CC2)c2ccccc21` [Example 1, 4-(2-naphthyl)-2-[3-oxospiro[isobenzofuran-1(3H),4′-piperidin]-1′-yl]-1H-imidazole hydrochloride], with 8.77; and `O=C1OC2(CCN(c3cc(-c4ccnc(-c5ccccc5)n4)[nH]n3)CC2)c2cnccc21` [Example 45, 3-[3-oxospiro[6-azaisobenzofuran-1(3H),4′-piperidin]-1′-yl]-5-(2-phenylpyrimidin-4-yl)-1H-pyrazole], with 8.82; and `O=C1OC2(CCN(c3cc(-c4ccnc(-c5ccccc5)c4)[nH]n3)CC2)c2ccccc21` [Example 14, 3-[3-oxospiro[isobenzofuran-1(3H),4′-piperidin]-1′-yl]-5-(2-phenylpyridin-4-yl)-1H-pyrazole], with 8.77.
`O=C1OC2(CCC(c3nn4nc(-c5ccccc5)cc4[nH]3)CC2)c2ccccc21` (stereo not drawn) [Example 36, trans-2-[3′-oxospiro[cyclohexane-1,1′(3′H)-isobenzofuran]-4-yl]-6-phenyl-1H-pyrazolo[2,3-b][1,2,4]triazole]: the negative-log IC50 (pIC50) in series [2] was 8.74.
Same read-out and setting: to `O=C1OC2(CCN(c3cc(-c4ccnc(-c5ccccc5F)n4)[nH]n3)CC2)c2cnccc21` [Example 46, 3-[3-oxospiro[6-azaisobenzofuran-1(3H),4′-piperidin]-1′-yl]-5-[2-(2-fluorophenyl)pyrimidin-4-yl]-1H-pyrazole] belongs 8.82.
The same measure, in the same setting: to `O=C1OC2(CCN(c3cc(-c4ccnc(-c5ccc(F)cc5)n4)[nH]n3)CC2)c2cnccc21` [Example 47, 3-[3-oxospiro[6-azaisobenzofuran-1(3H),4′-piperidin]-1′-yl]-5-[2-(4-fluorophenyl)pyrimidin-4-yl]-1H-pyrazole] belongs 8.66.
Still for that read-out and setting: to `O=C1OC2(CCC(c3cc(-c4cncc(-c5ccccc5)n4)[nH]n3)CC2)c2ccccc21` (stereo not drawn) [Example 24, trans-3-[3′-oxospiro[cyclohexane-1,1′(3′H)-isobenzofuran]-4-yl]-5-(6-phenylpyrazin-2-yl)-1H-pyrazole] belongs 8.41.
As for `O=C1OC2(CCN(c3cc(-c4ccnc(-c5ccccc5)n4)[nH]n3)CC2)c2ccccc21` [Example 19, 3-[3-oxospiro[isobenzofuran-1(3H),4′-piperidin]-1′-yl]-5-(2-phenylpyrimidin-4-yl)-1H-pyrazole], the pIC50 in series [2] is 8.80.
The same measure, in the same setting: then `O=C1OC2(CCC(c3nn4nc(-c5ccccc5F)cc4[nH]3)CC2)c2cnccc21` (stereo not drawn) [Example 34, trans-6-(2-fluorophenyl)-2-[3-oxospiro[6-azaisobenzofuran-1(3H),1′-cyclohexan]-4′-yl]-1H-pyrazolo[2,3-b][1,2,4]-triazole], with 8.46; and `O=C1OC2(CCC(c3cc(-c4ccnc(-c5ccccc5)n4)[nH]n3)CC2)c2ccccc21` (stereo not drawn) [Example 23, trans-3-[3′-oxospiro[cyclohexane-1,1′(3′H)-isobenzofuran]-4-yl]-5-(2-phenylpyrimidin-4-yl)-1H-pyrazole], with 8.57; and `O=C1OC2(CCN(c3nc(-c4ccc5ccccc5c4)n[nH]3)CC2)c2ccccc21` [Example 30, 3-(2-naphthyl)-5-[3-oxospiro[isobenzofuran-1-(3H),4′-piperidin]-1′-yl]-1H-1,2,4-triazole], with 8.38.
